Our source for the IC50 values is patent US20160176867A1, “MODIFIED BET-PROTEIN-INHIBITING DIHYDROQUINOXALINONES AND DIHYDROPYRIDOPYRAZINONES” (BAYER PHARMA AKTIENGESELLSCHAFT, priority 2013, published 2016).

One experiment deals with MOLP-8 cells. Put plainly: Cell proliferation assay (alamarBlue), MOLP-8. The following applies: Homo sapiens; MOLP-8 (multiple myeloma), 120 hours. In kind it is cell-based. The method in brief:
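MOLP-8 cells plated at 4000 cells/well in RPMI1640 with 20% FCS, read after overnight culture, then treated with dilutions from 1E-5 to 1E-8 M for 120 hours at 37° C. Viability by alamarBlue fluorescence (ex 530/em 590 nm); initial reads subtracted, compared with buffer-treated cells, and IC50 calculated for 50% proliferation inhibition.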

For another experiment, the system named is MOLM-13 cells. Put plainly: Cell proliferation assay (alamarBlue), MOLM-13. Type of experiment: cell-based. The following applies: Homo sapiens; MOLM-13 (acute myeloid leukaemia), 96 hours. The method in brief:
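Cells in RPMI1640 with 10% FCS, read by alamarBlue fluorescence (ex 530, em 590 nm) after overnight plating and again after 96 h compound exposure at 37° C (1E-5 to 1E-8 M). Baseline-subtracted signal compared with buffer-treated cells to derive IC50.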
In general terms: Resazurin is reduced to fluorescent resorufin, in cell work by metabolically active cells.

The target in experiment [1] is T1, BRD4 bromo domain 2 [BRD4(2)] (Homo sapiens, UniProt O60885).
T1 construct: N-terminally His6-tagged BRD4(2) (amino acids 357-445); made in house; host or cells: E. coli
Put plainly: BRD4/acetylated peptide H4 binding assay (TR-FRET), BRD4 bromo domain 2. The following applies: inhibition of BRD4(2)/Ac-H4 peptide interaction. The method in brief: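 IC50 comes from a 4-parameter fit over 0.1 nM–20 μM in duplicate, normalised to DMSO and no-protein controls. TR-FRET (Eu-streptavidin/anti-His-XL665) tracks His-tagged BRD4(2) 357-445 at 100 nM binding Ac-H4 peptide in HEPES pH 7.5 buffer. Incubation was 1 h at 22 °C, then at 4 °C ≥3 h up to overnight.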
(Time-resolved FRET reads energy transfer from a long-lived donor to a nearby acceptor.)

The test system of a further experiment is B16F10 cells. Put plainly: Cell proliferation assay (alamarBlue), B16F10. In kind it is cell-based. The following applies: Mus musculus, B16-F10; B16F10 (melanoma, BRAF wild-type), 96 hours. The method, boiled down:
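B16F10 cells in DMEM with 10% FCS were exposed to seven concentrations from 1E-5 to 1E-8 M for 96 hours at 37 °C. Viability was read with alamarBlue (ex 530/em 590 nm), and day-0 signal was subtracted. IC50 was derived relative to buffer-treated cells.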

As for `C[C@@H]1C(=O)N(C)c2ccc(N(C)c3cccc(S(=O)(=O)N(C)C)c3)nc2N1C1CCOCC1` [Example 54, 3-{[(3R)-1,3-dimethyl-2-oxo-4-(tetrahydro-2H-pyran-4-yl)-1,2,3,4-tetrahydropyrido[2,3-b]pyrazin-6-yl](methyl)-amino}-N,N-dimethyl-benzenesulphonamide], the half-inhibitory concentration (IC50) – broadly, the point on the concentration scale where inhibition reaches its midpoint – in the experiment with MOLP-8 cells stood at 247 nM; in the experiment on MOLM-13 cells, 233 nM; in experiment [1], 62 nM; in the experiment on B16F10 cells, 164 nM.

On to `CC(C)N1c2nc(Nc3cccc(S(=O)(=O)NCCN(C)C)c3)ccc2N(C)C(=O)[C@H]1C` [Example 55, N-[2-(dimethylamino)-ethyl]-3-{[(3R)-4-isopropyl-1,3-dimethyl-2-oxo-1,2,3,4-tetrahydro-pyrido[2,3-b]pyrazin-6-yl]amino}benzene-sulphonamide], for which the IC50 with MOLP-8 cells was determined as 48 nM; with MOLM-13 cells, 78 nM; in experiment [1], 149 nM; in the experiment with B16F10 cells, 312 nM.

Consider `C[C@@H]1C(=O)N(C)c2ccc(Nc3ccc4c(c3)S(=O)(=O)NC4)nc2N1C1CCOCC1` [Example 56, (3R)-6-[(1,1-dioxido-2,3-dihydro-1,2-benzothiazol-6-yl)amino]-1,3-dimethyl-4-(tetrahydro-2H-pyran-4-yl)-3,4-dihydropyrido[2,3-b]pyrazin-2(1H)-one], for which the half-maximal inhibitory concentration (IC50) in the experiment with MOLP-8 cells stood at 214 nM; with MOLM-13 cells, 239 nM; in experiment [1], 77 nM; with B16F10 cells it was 488 nM.

`C[C@@H]1C(=O)N(C)c2ccc(Nc3cccc(S(=O)(=O)NC4CCN(C)CC4)c3)nc2N1C1CCN(C(=O)OC(C)(C)C)CC1` [Example 57, tert-butyl 4-[(3R)-1,3-dimethyl-6-({3-[(1-methylpiperidin-4-yl)sulphamoyl]phenyl}-amino)-2-oxo-2,3-dihydro-pyrido[2,3-b]pyrazin-4(1H)-yl]piperidine-1-carboxylate]: the IC50 in the experiment with MOLP-8 cells is 151 nM; in the experiment on MOLM-13 cells it was 193 nM; in experiment [1] it was 177 nM; in the experiment on B16F10 cells, 531 nM.

Take `C[C@@H]1C(=O)N(C)c2ccc(Nc3cccc(S(N)(=O)=O)c3)nc2N1C1CCOCC1` [Example 58, 3-{[(3R)-1,3-dimethyl-2-oxo-4-(tetrahydro-2H-pyran-4-yl)-1,2,3,4-tetrahydropyrido[2,3-b]pyrazin-6-yl]amino}-benzenesulphonamide]: the half-maximal inhibitory concentration (IC50) with MOLP-8 cells was 268 nM; in the experiment on MOLM-13 cells, 378 nM; in experiment [1] it was 103 nM; with B16F10 cells, 613 nM.

On to `C[C@@H]1C(=O)N(C)c2ccc(Nc3cccc(S(=O)(=O)NCCN(C)C)c3)nc2N1C1CCN(C(=O)OC(C)(C)C)CC1` [Example 59, tert-butyl 4-[(3R)-6-[(3-{[2-(dimethylamino)ethyl]-sulphamoyl}phenyl)amino]-1,3-dimethyl-2-oxo-2,3-dihydropyrido[2,3-b]pyrazin-4(1H)-yl]piperidine-1-carboxylate], for which the IC50 with MOLP-8 cells was 297 nM; in the experiment on MOLM-13 cells, 516 nM; in experiment [1], 77 nM; with B16F10 cells, 1140 nM.

In the case of `C[C@@H]1C(=O)N(C)c2ccc(Nc3cccc(C(=O)N[C@H]4CC[C@H](N5CCN(CC6CC6)CC5)CC4)c3)nc2N1Cc1ccccc1` [Example 72, 3-{[(3R)-4-benzyl-1,3-dimethyl-2-oxo-1,2,3,4-tetrahydropyrido[2,3-b]pyrazin-6-yl]amino}-N-{trans-4-[4-(cyclo-propylmethyl)piperazin-1-yl]cyclohexyl}benzamide], the IC50 with MOLP-8 cells is 122 nM; in the experiment with MOLM-13 cells, 250 nM; in experiment [1], 256 nM; with B16F10 cells, 396 nM.

For the molecule `C[C@@H]1C(=O)N(C)c2ccc(Nc3cccc(C(=O)NC4CCN(C)CC4)c3)nc2N1Cc1ccccc1` [Example 73, 3-{[(3R)-4-benzyl-1,3-dimethyl-2-oxo-1,2,3,4-tetrahydropyrido[2,3-b]pyrazin-6-yl]amino}-N-(1-methylpiperidin-4-yl)benzamide], the IC50 worked out at 63 nM with MOLP-8 cells, 110 nM in the experiment on MOLM-13 cells, 86 nM in experiment [1] and 468 nM in the experiment on B16F10 cells.

`C[C@@H]1C(=O)N(C)c2ccc(Nc3cccc(C(=O)NCCN4CCN(C)CC4)c3)nc2N1Cc1ccccc1` [Example 74, 3-{[(3R)-4-benzyl-1,3-dimethyl-2-oxo-1,2,3,4-tetrahydropyrido[2,3-b]pyrazin-6-yl]amino}-N-[2-(4-methylpiperazin-1-yl)ethyl]benzamide]: the IC50 with MOLP-8 cells was determined as 82 nM; in the experiment with MOLM-13 cells, 157 nM; in experiment [1] it was 91 nM; in the experiment with B16F10 cells, 491 nM.

Regarding `C[C@@H]1C(=O)N(C)c2ccc(Nc3cccc(C(=O)N4CCN(C)CC4)c3)nc2N1Cc1ccccc1` [Example 75], the IC50 in the experiment on MOLP-8 cells amounted to 133 nM; in the experiment on MOLM-13 cells it was 197 nM; in experiment [1] it was 79 nM; in the experiment on B16F10 cells, 381 nM.

Regarding `CC(C)N1c2nc(Nc3cccc(C(=O)N4CCN(C)CC4)c3)ccc2N(C)C(=O)[C@H]1C` [Example 77, (3R)-4-isopropl-1,3-dimethyl-6-({3-[(4-methylpiperazin-1-yl)carbonyl]phenyl}-amino)-3,4-dihydro-pyrido[2,3-b]pyrazin-2(1H)-one], the IC50 in the experiment on MOLP-8 cells was found to be 494 nM; in the experiment on MOLM-13 cells, 1010 nM; in experiment [1], 118 nM; in the experiment on B16F10 cells it was 973 nM.

With `CC(C)N1c2nc(Nc3cccc(C(=O)N[C@H]4CC[C@H](N5CCN(CC6CC6)CC5)CC4)c3)ccc2N(C)C(=O)[C@H]1C` [Example 79, N-{trans-4-[4-(cyclo-propylmethyl)piperazin-1-yl]cyclohexyl}-3-{[(3R)-4-isopropyl-1,3-dimethyl-2-oxo-1,2,3,4-tetrahydropyrido[2,3-b]pyrazin-6-yl]amino}benzamide], the IC50 with MOLP-8 cells was 77 nM; with MOLM-13 cells it was 287 nM; in experiment [1], 116 nM; in the experiment on B16F10 cells, 478 nM.

On to `CC(C)N1c2nc(Nc3cccc(C(=O)N4CCN(CC5CC5)CC4)c3)ccc2N(C)C(=O)[C@H]1C` [Example 88, (3R)-6-[(3-{[4-(cyclo-propylmethyl)piperazin-1-yl]carbonyl}phenyl)amino]-4-isopropyl-1,3-dimethyl-3,4-dihydropyrido[2,3-b]pyrazin-2(1H)-one], for which the half-inhibitory concentration (IC50) with MOLP-8 cells was 876 nM; in the experiment on MOLM-13 cells it was 2080 nM; in experiment [1], 177 nM; with B16F10 cells, 1620 nM.

Take `C[C@@H]1C(=O)N(C)c2ccc(Nc3cccc(C(=O)N[C@H]4CC[C@H](N5CCN(CC6CC6)CC5)CC4)c3)nc2N1c1ccc(F)cc1` [Example 93]: the IC50 with MOLP-8 cells was determined as 800 nM; in the experiment on MOLM-13 cells it was 410 nM; in experiment [1] it was 2450 nM; with B16F10 cells it was 1180 nM.

For the molecule `C[C@@H]1C(=O)N(C)c2ccc(Nc3cccc(S(=O)(=O)N4CC5(CCC5)C4)c3)nc2N1C1CCNCC1` [Example 122, (3R)-6-{[3-(2-Azaspiro[3.3]hept-2-ylsulphonyl)phenyl]amino}-1,3-dimethyl-4-(piperidin-4-yl)-3,4-dihydropyrido[2,3-b]pyrazin-2(1H)-one], the IC50 with MOLP-8 cells stood at 493 nM; with MOLM-13 cells it was 396 nM; in experiment [1], 94 nM; in the experiment with B16F10 cells, 1840 nM.

With `C[C@@H]1C(=O)N(C)c2ccc(Nc3cccc(S(=O)(=O)N(C)C)c3)nc2N1C1CCNCC1` [Example 123, 3-{[(3R)-1,3-dimethyl-2-oxo-4-(piperidin-4-yl)-1,2,3,4-tetrahydropyrido[2,3-b]pyrazin-6-yl]amino}-N,N-dimethylbenzene-sulphonamide], the IC50 in the experiment on MOLP-8 cells stood at 169 nM; in the experiment with MOLM-13 cells, 140 nM; in experiment [1], 62 nM; with B16F10 cells, 2500 nM.

Take `C[C@@H]1C(=O)N(C)c2ccc(Nc3cccc(S(=O)(=O)NC4CCN(C)CC4)c3)nc2N1C1CCNCC1` [Example 124, 3-{[(3R)-1,3-dimethyl-2-oxo-4-(piperidin-4-yl)-1,2,3,4-tetrahydropyrido[2,3-b]pyrazin-6-yl]amino}-N-(1-methylpiperidin-4-yl)benzenesulphonamide]: the IC50 in the experiment with MOLP-8 cells is more than 20000 nM; with MOLM-13 cells, more than 20000 nM; in experiment [1], 46 nM; with B16F10 cells, more than 20000 nM.

As to `C[C@@H]1C(=O)N(C)c2ccc(Nc3cccc(S(=O)(=O)N4CCN(C)CC4)c3)nc2N1C1CCNCC1` [Example 125, (3R)-1,3-dimethyl-6-({3-[(4-methylpiperazin-1-yl)sulphonyl]phenyl}amino)-4-(piperidin-4-yl)-3,4-dihydropyrido[2,3-b]pyrazin-2(1H)-one], the IC50 in the experiment on MOLP-8 cells was 719 nM; in the experiment on MOLM-13 cells, 383 nM; in experiment [1] it was 44 nM; in the experiment on B16F10 cells it was more than 10000 nM.
